Laboratory results: patent publication US9145392B2, “Imidazole amines as modulators of kinase activity” (Merck Patent GmbH, priority 2011, dated 2015)

Tests used:
P70S6K (T412E mutant) = P70S6K (T412E mutant) (Homo sapiens (Human), UniProt P23443, T412E); assay: P70S6K enzyme assay; assay type: biochemical; details: read-out: IC50 p70S6K
In short: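 Read-out is the substrate/phosphopeptide ratio from mobility-shift electrophoresis on a LabChip 3000.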

His-AKT (Full Length) = His-AKT (Full Length) (Homo sapiens (Human), UniProt P31749); assay: AKT enzyme assay; assay type: biochemical; details: read-out: IC50 AKT
Chain of His-AKT (Full Length) (P31749 whole entry): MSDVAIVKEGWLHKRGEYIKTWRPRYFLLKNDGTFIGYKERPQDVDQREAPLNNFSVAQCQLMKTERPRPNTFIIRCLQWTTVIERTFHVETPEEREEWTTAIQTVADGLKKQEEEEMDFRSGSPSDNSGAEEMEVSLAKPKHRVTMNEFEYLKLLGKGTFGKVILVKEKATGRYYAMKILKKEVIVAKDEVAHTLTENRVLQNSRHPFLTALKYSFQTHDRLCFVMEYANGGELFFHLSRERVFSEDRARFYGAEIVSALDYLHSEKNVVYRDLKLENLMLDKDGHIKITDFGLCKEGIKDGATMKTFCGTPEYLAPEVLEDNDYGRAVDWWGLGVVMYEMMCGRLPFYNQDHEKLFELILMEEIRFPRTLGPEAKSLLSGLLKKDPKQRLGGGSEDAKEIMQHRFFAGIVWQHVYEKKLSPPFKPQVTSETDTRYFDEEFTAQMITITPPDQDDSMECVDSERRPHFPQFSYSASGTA

Chain of P70S6K (T412E mutant) (P23443 whole entry T412E): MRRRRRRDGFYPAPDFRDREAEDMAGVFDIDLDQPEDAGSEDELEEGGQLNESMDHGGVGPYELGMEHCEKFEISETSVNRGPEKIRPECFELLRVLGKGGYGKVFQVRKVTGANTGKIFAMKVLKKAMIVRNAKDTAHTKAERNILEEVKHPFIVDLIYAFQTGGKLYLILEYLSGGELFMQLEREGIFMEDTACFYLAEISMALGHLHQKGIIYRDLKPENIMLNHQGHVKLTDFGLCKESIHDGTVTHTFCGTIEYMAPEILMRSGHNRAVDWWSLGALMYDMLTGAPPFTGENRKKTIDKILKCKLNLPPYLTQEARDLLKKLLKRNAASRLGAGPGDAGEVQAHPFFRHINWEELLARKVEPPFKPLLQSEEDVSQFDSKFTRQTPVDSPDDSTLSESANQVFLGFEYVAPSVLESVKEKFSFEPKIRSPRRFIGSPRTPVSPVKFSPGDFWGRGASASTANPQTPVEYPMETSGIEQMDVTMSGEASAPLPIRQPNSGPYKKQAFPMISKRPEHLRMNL

SMILES | IC50 (P70S6K (T412E mutant)) [nM] | IC50 (His-AKT (Full Length)) [nM]
N#Cc1c(N)ncnc1N1CCC(c2nc(-c3ccc(F)c(F)c3)cn2CCN2CCCC2)CC1 [Compound 306, 4-amino-6{4-(3,4-difluorophenyl-1-2-(pyrrolidin-1-yl-ethyl)-1H-imidazol-2-yl]-piperidin-1-yl}-pyrimidin-5-carbonitrile] | 2 | 7.6
N#Cc1c(N)ncnc1N1CCC(c2nc(-c3ccc(F)c(Cl)c3)cn2CCN2CCCC2)CC1 [Compound 307] | 0.8 | 1.5
N#Cc1c(N)ncnc1N1CCC(c2nc(-c3ccc(F)cc3)cn2CCN2CCCC2)CC1 [Compound 308] | 2.6 | 13
N#Cc1c(N)ncnc1N1CCC(c2nc(-c3cccc(F)c3)cn2CCN2CCCC2)CC1 [Compound 309] | 2.6 | 21
N#Cc1c(N)ncnc1N1CCC(c2nc(-c3cccc(C(F)(F)F)c3)cn2CCN2CCCC2)CC1 [Compound 310] | 2.3 | 7.6
N#Cc1c(N)ncnc1N1CCC(c2nc(-c3cccc(Cl)c3)cn2CCN2CCCC2)CC1 [Compound 311] | 2.3 | 8.4
N#Cc1c(N)ncnc1N1CCC(c2nc(-c3ccc(F)c(C(F)(F)F)c3)cn2CCN2CCCCC2)CC1 [Compound 312] | 1.9 | 2.3
N#Cc1c(N)ncnc1N1CCC(c2nc(-c3ccc(F)c(F)c3)cn2CCN2CCC2)CC1 [Compound 313] | 1.6 | 9.3
N#Cc1c(N)ncnc1N1CCC(c2nc(-c3ccc(OC(F)F)c(F)c3)cn2CCN2CCC2)CC1 [Compound 314] | 1.8 | 4.1
N#Cc1c(N)ncnc1N1CCC(c2nc(-c3cc[nH]c(=O)c3)cn2CCN2CCC2)CC1 [Compound 315] | 99 | 500
Cc1ccc(-c2cn(CCN3CCC3)c(C3CCN(c4ncnc(N)c4C#N)CC3)n2)cc1C(F)(F)F [Compound 316] | 0.8 | 24
CC(C)c1cc(-c2cn(CCN3CCC3)c(C3CCN(c4ncnc(N)c4C#N)CC3)n2)ccn1 [Compound 317] | 1.7 | 11
CCc1cc(-c2cn(CCN3CCC3)c(C3CCN(c4ncnc(N)c4C#N)CC3)n2)ccn1 [Compound 318] | 1.4 | 15
N#Cc1c(N)ncnc1N1CCC(c2nc(-c3ccnc(C4CC4)c3)cn2CCN2CCC2)CC1 [Compound 319] | 1.7 | 23
COc1ccc(-c2cn(CCN3CCC3)c(C3CCN(c4ncnc(N)c4C#N)CC3)n2)cc1F [Compound 321] | 2.6 | 59
Cc1ccc(-c2cn(CCN3CCC3)c(C3CCN(c4ncnc(N)c4C#N)CC3)n2)cc1Cl [Compound 322] | 1.3 | 13
COc1ccc(-c2cn(CCN3CCC3)c(C3CCN(c4ncnc(N)c4C#N)CC3)n2)cc1Cl [Compound 323] | 8.3 | 31
Cc1cc(-c2cn(CCN3CCCC3)c(C3CCN(c4ncnc(N)c4C#N)CC3)n2)ccc1F [Compound 324] | 2.8 | 3.5

SMILES | IC50 (P70S6K (T412E mutant)) [nM] | IC50 (His-AKT (Full Length)) [nM]
Cc1cc(-c2cn(CCN(C)C)c(C3CCN(c4ncnc(N)c4C#N)CC3)n2)ccc1F [Compound 325] | 0.5 | 0.9
CCN(CC)CCn1cc(-c2ccc(F)c(C)c2)nc1C1CCN(c2ncnc(N)c2C#N)CC1 [Compound 326] | 2.7 | 2.5
CCN(CCn1cc(-c2ccc(F)c(C)c2)nc1C1CCN(c2ncnc(N)c2C#N)CC1)C(C)C [Compound 327] | 5.2 | 2.8
CC(C)c1cc(-c2cn(CCN3CCC3)c(C3CCN(c4ncnc(N)c4C(N)=O)CC3)n2)ccn1 [Compound 332] | 3.8 | 37
NC(=O)c1c(N)ncnc1N1CCC(c2nc(-c3cccc(C(F)(F)F)c3)cn2CCN2CCCC2)CC1 [Compound 335] | 13 | 92
NC(=O)c1c(N)ncnc1N1CCC(c2nc(-c3cccc(Cl)c3)cn2CCN2CCCC2)CC1 [Compound 336] | 7.6 | 76
NC(=O)c1c(N)ncnc1N1CCC(c2nc(-c3ccc(F)c(C(F)(F)F)c3)cn2CCN2CCCCC2)CC1 [Compound 337] | 3.5 | 11
NC(=O)c1c(N)ncnc1N1CCC(c2nc(-c3ccnc(C4CC4)c3)cn2CCN2CCC2)CC1 [Compound 342] | 3.7 | 61
CC(C)(C)c1cc(-c2cn(CCN3CCC3)c(C3CCN(c4ncnc(N)c4C(N)=O)CC3)n2)ccn1 [Compound 343] | 5.5 | 170
Cc1cc(-c2cn(CCN(C)C)c(C3CCN(c4ncnc(N)c4C(N)=O)CC3)n2)ccc1F [Compound 348] | 4 | 32
CCN(CC)CCn1cc(-c2ccc(F)c(C)c2)nc1C1CCN(c2ncnc(N)c2C(N)=O)CC1 [Compound 349] | 25 | 55
CCN(CCn1cc(-c2ccc(F)c(C)c2)nc1C1CCN(c2ncnc(N)c2C(N)=O)CC1)C(C)C [Compound 351] | 27 | 48
CCc1c(N)ncnc1N1CCC(c2nc(-c3cnc(N(C)C)nc3)cn2CCN2CCC2)CC1 [Compound 352, 6-{4-[1-(2-Azetidin-1-yl-ethyl)-4-(2-dimethylamino-pyrimidin-5-yl)-1H-imidazol-2-yl]-piperidin-1-yl}-5-ethyl-pyrimidin-4-ylamine] | 310 | 5700
N#Cc1c(N)ncnc1N1CCC(c2nc(-c3ccccc3F)cn2CCN2CCC2)CC1 [Compound 353, 4-Amino-6-{4-[1-(2-azetidin-1-yl-ethyl)-4-(2-fluoro-phenyl)-1H-imidazol-2-yl]-piperidin-1-yl}-pyrimidine-5-carbonitrile] | 14 | 140
N#Cc1c(N)ncnc1N1CCC(c2nc(-c3cccc(S(N)(=O)=O)c3)cn2CCN2CCC2)CC1 [Compound 354, 3-[2-[1-(6-Amino-5-cyano-pyrimidin-4-yl)-piperidin-4-yl]-1-(2-azetidin-1-yl-ethyl)-1H-imidazol-4-yl]-benzenesulfonamide] | > 10000 | > 10000
CS(=O)(=O)c1cccc(-c2cn(CCN3CCC3)c(C3CCN(c4ncnc(N)c4C#N)CC3)n2)c1 [Compound 355, 4-Amino-6-{4-[1-(2-azetidin-1-yl-ethyl)-4-(3-methanesulfonyl-phenyl)-1H-imidazol-2-yl]-piperidin-1-yl}-pyrimidine-5-carbonitrile] | 17 | 80
N#Cc1c(N)ncnc1N1CCC(c2nc(-c3ccc(F)c(C(F)(F)F)c3)cn2CCO)CC1 [Compound 357, 4-Amino-6-{4-[4-(4-fluoro-3-trifluoromethyl-phenyl)-1-(2-hydroxy-ethyl)-1H-imidazol-2-yl]-piperidin-1-yl}-pyrimidine-5-carbonitrile] | 0.8 | 130

The remaining lines, values ahead:

IC50 (P70S6K (T412E mutant)) [nM] | IC50 (His-AKT (Full Length)) [nM] | SMILES
1.6 | 48 | Cc1ccc(-c2cn(CCN3CCC3)c(C3CCN(c4ncnc(N)c4C#N)CC3)n2)cc1F [Compound 320]
8.1 | 140 | NC(=O)c1c(N)ncnc1N1CCC(c2nc(-c3ccc(F)c(F)c3)cn2CCN2CCC2)CC1 [Compound 328]
14 | 120 | NC(=O)c1c(N)ncnc1N1CCC(c2nc(-c3ccc(F)c(F)c3)cn2CCN2CCCC2)CC1 [Compound 329]
3.6 | 14 | NC(=O)c1c(N)ncnc1N1CCC(c2nc(-c3ccc(F)c(Cl)c3)cn2CCN2CCCC2)CC1 [Compound 330]
4.6 | 15 | NC(=O)c1c(N)ncnc1N1CCC(c2nc(-c3ccc(F)c(C(F)(F)F)c3)cn2CCN2CCCC2)CC1 [Compound 331]
21 | 380 | NC(=O)c1c(N)ncnc1N1CCC(c2nc(-c3ccc(F)cc3)cn2CCN2CCCC2)CC1 [Compound 333]
26 | 620 | NC(=O)c1c(N)ncnc1N1CCC(c2nc(-c3cccc(F)c3)cn2CCN2CCCC2)CC1 [Compound 334]
2 | 29 | NC(=O)c1c(N)ncnc1N1CCC(c2nc(-c3ccc(F)c(OC(F)F)c3)cn2CCN2CCC2)CC1 [Compound 338]
2700 | 5800 | NC(=O)c1c(N)ncnc1N1CCC(c2nc(-c3cc[nH]c(=O)c3)cn2CCN2CCC2)CC1 [Compound 339]
4 | 420 | Cc1ccc(-c2cn(CCN3CCC3)c(C3CCN(c4ncnc(N)c4C(N)=O)CC3)n2)cc1C(F)(F)F [Compound 340]
11 | 450 | CCc1cc(-c2cn(CCN3CCC3)c(C3CCN(c4ncnc(N)c4C(N)=O)CC3)n2)ccn1 [Compound 341]
25 | 2400 | Cc1ccc(-c2cn(CCN3CCC3)c(C3CCN(c4ncnc(N)c4C(N)=O)CC3)n2)cc1F [Compound 344]
100 | 13000 | COc1ccc(-c2cn(CCN3CCC3)c(C3CCN(c4ncnc(N)c4C(N)=O)CC3)n2)cc1F [Compound 345]
3.9 | 220 | Cc1ccc(-c2cn(CCN3CCC3)c(C3CCN(c4ncnc(N)c4C(N)=O)CC3)n2)cc1Cl [Compound 346]
87 | 990 | COc1ccc(-c2cn(CCN3CCC3)c(C3CCN(c4ncnc(N)c4C(N)=O)CC3)n2)cc1Cl [Compound 347]
2.3 | 10 | Cc1cc(-c2cn(CCN3CCCC3)c(C3CCN(c4ncnc(N)c4C(N)=O)CC3)n2)ccc1F [Compound 350]
80 | 560 | CS(=O)(=O)c1cccc(-c2cn(CCN3CCC3)c(C3CCN(c4ncnc(N)c4C(N)=O)CC3)n2)c1 [Compound 356, 4-Amino-6-{4-[1-(2-azetidin-1-yl-ethyl)-4-(3-methanesulfonyl-phenyl)-1H-imidazol-2-yl]-piperidin-1-yl}-pyrimidine-5-carboxylic acid amide]
